Experiments:
[1] = test system: wheat (Triticum aestivum); assay: Test A postemergence; type: in vivo; details: Triticum aestivum, post-emergence, 240 h, 125 g ai/ha, Postemergence; visual injury after approximately 10 d; 0 to 100 scale where 0 is no effect and 100 is complete control; read-out: Plant response rating, Wheat
Outline: (§1)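 Visual injury, scored on a 0–100 scale relative to untreated controls, was recorded about 10 d after application. Treatments were a preemergence soil spray over planted seeds or a postemergence spray on plants at the one- to two-leaf stage, 2 to 10 cm tall, all in loam soil–sand blend in the greenhouse.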

[2] = test system: giant foxtail (Setaria faberii); assay: Test A postemergence; type: in vivo; details: Setaria faberi, post-emergence, 240 h, 125 g ai/ha, Postemergence; visual injury after approximately 10 d; 0 to 100 scale where 0 is no effect and 100 is complete control; read-out: Plant response rating, Foxtail, Giant
Outline: as §1

[3] = test system: blackgrass (Alopecurus myosuroides); assay: Test A postemergence; type: in vivo; details: Alopecurus myosuroides, post-emergence, 240 h, 125 g ai/ha, Postemergence; visual injury after approximately 10 d; 0 to 100 scale where 0 is no effect and 100 is complete control; read-out: Plant response rating, Blackgrass
Outline: as §1

[4] = test system: ryegrass, Italian (Italian ryegrass, Lolium multiflorum); assay: Test A postemergence; type: in vivo; details: Lolium multiflorum, post-emergence, 240 h, 125 g ai/ha, Postemergence; visual injury after approximately 10 d; 0 to 100 scale where 0 is no effect and 100 is complete control; read-out: Plant response rating, Ryegrass, Italian
Outline: as §1

[5] = test system: ragweed (common ragweed, Ambrosia elatior); assay: Test A postemergence; type: in vivo; details: Ambrosia artemisiifolia, post-emergence, 240 h, 125 g ai/ha, Postemergence; visual injury after approximately 10 d; 0 to 100 scale where 0 is no effect and 100 is complete control; read-out: Plant response rating, Ragweed
Outline: as §1

Compound | melting point [°C] | plant injury at 125 g/ha [1] [%] | pest or weed control at 125 g/ha [2] [%] | pest or weed control at 125 g/ha [3] [%] | pest or weed control at 125 g/ha [4] [%] | pest or weed control at 125 g/ha [5] [%]
CN1C[C@H](c2ccc(C(F)(F)F)cc2)[C@@H](C(=O)Nc2ccccc2[S+](C)[O-])C1=O (stereo partly drawn) [Compound 915] | 181 to 184 | 40 | 90 | 40 | 30 | 30
CN1C[C@H](c2ccc(C(F)(F)F)cc2)[C@@H](C(=O)Nc2ccc(F)cc2Br)C1=O [Compound 934] | 123 to 126 | 0 | 90 | 0 | 0 | 0
Cc1cc(F)ccc1NC(=O)[C@H]1C(=O)N(C)C[C@@H]1c1ccc(C(F)(F)F)cc1 [Compound 936] | 119 to 122 | 30 | 90 | 30 | 0 | 0
